Experimental data: patent US20110124523A1, “High Throughput Method for Detecting Apoptosis of Embryonic Stages of Metazoan Helminthic Parasites” (INSTITUTE OF LIFE SCIENCES, priority 2009, published 2011)
Several values for one entry are separate records, joined by “and”; a condition that tells them apart may be missing. Equal entries are not always repeated.

Experiments:
[1] = tested on: embryonic stages of S. digitata; test: Externalization of phosphatidyl serine, Annexin-V-PE staining, flow cytometry; assay type: cell-based, Setaria digitata; details: for GMI (Geometric Mean Intensity) of Fluorescence, Annexin-V-PE Staining: 24 hr; for externalization of Phosphatidyl serine (result in words): Microfilariae and eggs, Annexin-V-PE staining
Protocol: Adult female filarial worms Setaria digitata were collected from the peritoneum of cattle, slaughtered at a nearby abattoir in sterile Hanks Balanced Salt Solution (HBSS) medium (Sigma H 2387-1L) and transported to the laboratory in a sterile container. The medium containing 1% glucose (Sigma G 7528), Penicillin 100 units/ml, Streptomycin 100 μg/ml (Sigma P 4333). And Amphotericin-B 0.25 μg/ml (Sigma A 2942) was buffered with NaHCO3 (Sigma S 5761). About 5 to 7 worms were taken in a petridish, washed three times in medium, dissected into small pieces in 10 ml of medium under sterile conditions and incubated at 37° C. for 30 minutes to allow the release of embryonic stages (eggs and microfilariae) into the medium. The embryonic stages were harvested into sterile 15 ml. centrifuge tubes and washed three times by centrifuging at 300 g for 10 minutes each with medium and the final pellet was suspended in 1 ml. of RPMI-1640 medium (Sigma R 8005) supplemented with 10% FBS (Sigma F 2442) The number of embryonic stages of S. digitata in the above preparation were counted using light microscope, and the suspension was taken in RPMI-1640 medium containing 10% FBS at 1×10^5 embryonic stages/ml. One ml. each was dispensed into individual wells of a 24 well tissue culture plate. One set of wells was taken as untreated control containing only medium with 10% FBS. […] Motility of the Mf was scored under an inverted microscope. After appropriate treatment and incubation, each set of the cultured embryonic stages of S. digitata were harvested from the 24 well tissue culture plate separately in 15 ml. sterile centrifuge tubes, washed with PBS twice and stained as per requirement following manufacturer's instructions as described below. This was followed by two times washing with PBS and final suspension of the stained embryonic stages was taken in 0.5 ml of sheath fluid (BD Biosciences 342003) before their acquisition in the flow cytometer (BD FACS Calibur, Becten and Dickinson, USA). Analysis was performed on 10,000-acquired events depicted as Dot Plots and Histogram Plots using Cellquest Pro soft ware. All plots were representative of at least 3 experiments. The distinctly clustered populations obtained consistently in the Dot plots for the intra uterine embryonic stages of S. digitata (FIG. 1 a) were gated for Mfs (R-1) and eggs (R-2 and R-3) and analyzed for different assays for apoptosis as described below. The externalization of phosphatidyl serine was detected by staining the embryonic stages with Annexin-V-PE (BD Biosciences 556421) as per the instructions of the manufacturer. Briefly, the embryonic stages of S. digitata were subjected to various treatments in culture for 24 hrs. After the said period of incubation the embryonic stages were harvested, washed with ice cold PBS twice and resuspended in 100 μl of 1× Annexin-V binding buffer (BD Biosciences 556454) at 1×10^5 embryonic stages per ml. to which 5 μl of Annexin-V-PE was added. After 15 minutes of Incubation in dark at room temperature another 400 μl of 1× Annexin-V binding buffer was added to the above suspension. The resulting 500 μl suspension of Annexin-V-PE stained embryonic stages was then acquired and analyzed by flow cytometer.

[2] = tested on: embryonic stages of S. digitata; test: Fragmentation of chromosomal DNA, TUNEL staining; assay type: cell-based, Setaria digitata; details: for GMI (Geometric Mean Intensity) of Fluorescence, TUNEL Staining: 24 hr; for induction of DNA fragmentation (result in words): Mf stages and eggs, TUNEL assay
Protocol: Adult female filarial worms Setaria digitata were collected from the peritoneum of cattle, slaughtered at a nearby abattoir in sterile Hanks Balanced Salt Solution (HBSS) medium (Sigma H 2387-1L) and transported to the laboratory in a sterile container. The medium containing 1% glucose (Sigma G 7528), Penicillin 100 units/ml, Streptomycin 100 μg/ml (Sigma P 4333). And Amphotericin-B 0.25 μg/ml (Sigma A 2942) was buffered with NaHCO3 (Sigma S 5761). About 5 to 7 worms were taken in a petridish, washed three times in medium, dissected into small pieces in 10 ml of medium under sterile conditions and incubated at 37° C. for 30 minutes to allow the release of embryonic stages (eggs and microfilariae) into the medium. The embryonic stages were harvested into sterile 15 ml. centrifuge tubes and washed three times by centrifuging at 300 g for 10 minutes each with medium and the final pellet was suspended in 1 ml. of RPMI-1640 medium (Sigma R 8005) supplemented with 10% FBS (Sigma F 2442) The number of embryonic stages of S. digitata in the above preparation were counted using light microscope, and the suspension was taken in RPMI-1640 medium containing 10% FBS at 1×10^5 embryonic stages/ml. One ml. each was dispensed into individual wells of a 24 well tissue culture plate. One set of wells was taken as untreated control containing only medium with 10% FBS. […] Motility of the Mf was scored under an inverted microscope. After appropriate treatment and incubation, each set of the cultured embryonic stages of S. digitata were harvested from the 24 well tissue culture plate separately in 15 ml. sterile centrifuge tubes, washed with PBS twice and stained as per requirement following manufacturer's instructions as described below. This was followed by two times washing with PBS and final suspension of the stained embryonic stages was taken in 0.5 ml of sheath fluid (BD Biosciences 342003) before their acquisition in the flow cytometer (BD FACS Calibur, Becten and Dickinson, USA). Analysis was performed on 10,000-acquired events depicted as Dot Plots and Histogram Plots using Cellquest Pro soft ware. All plots were representative of at least 3 experiments. The distinctly clustered populations obtained consistently in the Dot plots for the intra uterine embryonic stages of S. digitata (FIG. 1 a) were gated for Mfs (R-1) and eggs (R-2 and R-3) and analyzed for different assays for apoptosis as described below. Presence of fragmentation of chromosomal DNA was detected by TUNEL staining. Briefly, the treated embryonic stages were harvested, fixed with 1% Para formaldehyde followed by washing with PBS and stored in 70% ethanol at −20° C.

OO [H2O2]
GMI (Geometric Mean Intensity) of Fluorescence, Annexin-V-PE Staining ([1]; Eggs, 10 μM): 30.95 and 33.55 and 35.75 | externalization of Phosphatidyl serine (result in words) [1]: dose dependent externalization of Phosphatidyl serine was observed | GMI (Geometric Mean Intensity) of Fluorescence, Annexin-V-PE Staining ([1]; Microfilariae, 10 μM): 9.75 and 11.02 and 10.35 | GMI (Geometric Mean Intensity) of Fluorescence, TUNEL Staining ([2]; Eggs, 10 μM): 70.85 and 71.36 and 72.56 | induction of DNA fragmentation (result in words) [2]: dose dependent induction of DNA fragmentation | GMI (Geometric Mean Intensity) of Fluorescence, TUNEL Staining ([2]; Microfilariae, 10 μM): 13.62 and 12.52 and 14.16

CN[C@@H]1C[C@H]2O[C@@](C)([C@@H]1OC)n1c3ccccc3c3c4c(c5c6ccccc6n2c5c31)C(=O)NC4 [Staurosporine]
GMI (Geometric Mean Intensity) of Fluorescence, Annexin-V-PE Staining ([1]; Eggs, 1 μM): 27.59 and 28.53 and 30.63 | externalization of Phosphatidyl serine (result in words) [1]: did not mediate such effects on Phosphatidyl serine externalization | GMI (Geometric Mean Intensity) of Fluorescence, Annexin-V-PE Staining ([1]; Microfilariae, 1 μM): 7.24 and 8.03 and 8.52 | GMI (Geometric Mean Intensity) of Fluorescence, TUNEL Staining ([2]; Eggs, 1 μM): 65.77 and 60.33 and 71.25 | GMI (Geometric Mean Intensity) of Fluorescence, TUNEL Staining ([2]; Microfilariae, 1 μM): 10.67 and 10.02 and 12.15

CC1=CC(=O)c2c(O)cccc2C1=O [Plumbagin]
GMI (Geometric Mean Intensity) of Fluorescence, Annexin-V-PE Staining ([1]; Eggs, 10 μM): 81.25 and 85.22 and 89.36 | externalization of Phosphatidyl serine (result in words) [1]: dose dependent externalization of Phosphatidyl serine was observed | GMI (Geometric Mean Intensity) of Fluorescence, Annexin-V-PE Staining ([1]; Microfilariae, 10 μM): 11.95 and 12.52 and 13.56 | GMI (Geometric Mean Intensity) of Fluorescence, TUNEL Staining ([2]; Eggs, 10 μM): 104.33 and 109.68 and 105.32 | induction of DNA fragmentation (result in words) [2]: dose dependent induction of DNA fragmentation | GMI (Geometric Mean Intensity) of Fluorescence, TUNEL Staining ([2]; Microfilariae, 10 μM): 40.65 and 38.97 and 45.76 | efficiency in induction of apoptosis (comparison in words) ([2]; Plumbagin compared with H2O2): more efficient than H2O2 in induction of apoptosis
